pIC50: −log10 of the molar value.
Molecular target: T1, Nav1.7 voltage-gated sodium channel (Homo sapiens, UniProt Q15858)
T1 construct: Gene(s) encoding the full-length protein of the voltage-gated sodium channel of interest are cloned and expressed; expressed in transfected cells
Test: Whole-cell voltage clamp electrophysiology assay
Type: cell-based
Conditions: cells stably expressing the voltage-gated sodium channel of interest
Method in brief: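 Cells expressing full-length channel, exposed to drug by integrated pipetting on automated patch-clamp platforms or by microperfusion in conventional whole-cell patch clamp. Channels activated by a voltage protocol depolarising from a defined holding potential; buffers per platform manufacturer.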

T1 sequence (Q15858 whole entry): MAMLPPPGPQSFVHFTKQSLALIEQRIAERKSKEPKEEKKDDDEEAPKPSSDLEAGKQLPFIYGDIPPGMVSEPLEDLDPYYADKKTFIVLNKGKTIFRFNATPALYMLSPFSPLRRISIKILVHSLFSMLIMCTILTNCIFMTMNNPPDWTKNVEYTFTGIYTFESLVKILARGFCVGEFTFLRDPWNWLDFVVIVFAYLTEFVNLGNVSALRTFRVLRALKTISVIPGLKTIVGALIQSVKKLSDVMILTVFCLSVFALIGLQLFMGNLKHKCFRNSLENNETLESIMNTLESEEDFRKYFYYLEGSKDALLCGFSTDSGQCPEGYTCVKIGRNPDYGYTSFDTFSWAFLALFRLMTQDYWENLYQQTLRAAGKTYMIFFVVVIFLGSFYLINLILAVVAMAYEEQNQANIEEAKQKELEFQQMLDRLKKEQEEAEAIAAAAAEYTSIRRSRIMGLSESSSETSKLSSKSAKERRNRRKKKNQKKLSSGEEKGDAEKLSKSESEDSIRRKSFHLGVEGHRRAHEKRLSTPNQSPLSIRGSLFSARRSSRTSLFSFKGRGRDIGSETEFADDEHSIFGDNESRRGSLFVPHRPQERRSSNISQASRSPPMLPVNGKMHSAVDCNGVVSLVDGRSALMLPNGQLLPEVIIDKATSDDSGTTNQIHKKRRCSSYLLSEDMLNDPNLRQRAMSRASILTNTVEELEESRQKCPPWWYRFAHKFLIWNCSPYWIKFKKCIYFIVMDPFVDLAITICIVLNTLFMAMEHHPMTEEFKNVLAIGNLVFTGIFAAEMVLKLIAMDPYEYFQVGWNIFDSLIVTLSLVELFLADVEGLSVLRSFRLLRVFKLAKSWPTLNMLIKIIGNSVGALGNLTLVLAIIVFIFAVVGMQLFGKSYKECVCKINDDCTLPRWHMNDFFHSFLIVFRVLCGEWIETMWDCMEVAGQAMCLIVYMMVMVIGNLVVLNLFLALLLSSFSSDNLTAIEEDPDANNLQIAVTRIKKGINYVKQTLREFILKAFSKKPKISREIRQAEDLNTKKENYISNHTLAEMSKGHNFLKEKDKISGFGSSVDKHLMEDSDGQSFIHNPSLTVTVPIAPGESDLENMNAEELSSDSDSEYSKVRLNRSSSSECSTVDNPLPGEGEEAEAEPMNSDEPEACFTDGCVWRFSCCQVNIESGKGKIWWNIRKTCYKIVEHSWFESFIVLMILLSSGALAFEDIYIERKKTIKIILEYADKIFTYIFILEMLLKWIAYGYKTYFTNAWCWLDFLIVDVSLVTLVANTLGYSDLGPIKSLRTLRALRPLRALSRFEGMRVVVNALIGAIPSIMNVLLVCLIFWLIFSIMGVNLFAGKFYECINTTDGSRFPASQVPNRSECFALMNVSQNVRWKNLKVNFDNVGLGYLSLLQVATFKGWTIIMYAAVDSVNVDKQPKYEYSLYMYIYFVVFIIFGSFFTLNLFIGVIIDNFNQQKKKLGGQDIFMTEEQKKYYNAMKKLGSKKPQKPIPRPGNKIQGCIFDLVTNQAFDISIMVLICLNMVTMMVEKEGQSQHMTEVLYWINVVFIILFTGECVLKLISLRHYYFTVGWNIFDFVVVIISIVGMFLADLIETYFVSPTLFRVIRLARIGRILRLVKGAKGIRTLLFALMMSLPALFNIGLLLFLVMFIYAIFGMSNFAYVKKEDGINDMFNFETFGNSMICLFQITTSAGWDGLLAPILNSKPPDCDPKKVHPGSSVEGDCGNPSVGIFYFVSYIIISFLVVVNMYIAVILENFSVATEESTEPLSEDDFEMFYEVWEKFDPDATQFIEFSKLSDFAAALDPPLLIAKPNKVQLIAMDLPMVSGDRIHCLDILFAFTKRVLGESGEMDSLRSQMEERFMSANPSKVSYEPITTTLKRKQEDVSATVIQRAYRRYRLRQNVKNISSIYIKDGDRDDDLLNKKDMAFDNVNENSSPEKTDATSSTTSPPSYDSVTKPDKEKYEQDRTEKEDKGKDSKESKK

Q: How did the pIC50 turn out when `CN(C)C(=O)c1ncc(-c2cccc3c2C[C@H](NC(=O)c2ccc(OCCOCC(F)(F)F)nc2)CO3)cn1` [Example 209, N,N-dimethyl-5-{(3S)-3-[({6-[2-(2,2,2-trifluoroethoxy)ethoxy]pyridin-3-yl}carbonyl)amino]-3,4-dihydro-2H-chromen-5-yl}pyrimidine-2-carboxamide] was run?
A: The pIC50 was 5.10.

Q: How did the pIC50 turn out when `O=C(N[C@@H]1COc2cccc(-c3ccc(CO)nc3)c2C1)c1ccc(OCCOCC(F)(F)F)nc1` [Example 210, N-{(3S)-5-[6-(hydroxymethyl)pyridin-3-yl]-3,4-dihydro-2H-chromen-3-yl}-6-[2-(2,2,2-trifluoroethoxy)ethoxy]nicotinamide] was run?
A: The pIC50 was 7.00.

Q: With `O=C(N[C@@H]1COc2cccc(-c3ccc(CO)nc3)c2C1)c1ccc(OCCCF)nc1` [Example 211, 6-(3-fluoropropoxy)-N-{(3S)-5-[6-(hydroxymethyl)pyridin-3-yl]-3,4-dihydro-2H-chromen-3-yl}nicotinamide] as the compound, how does the pIC50 read?
A: The pIC50 was 6.70.

Q: How did the pIC50 turn out when `O=C(N[C@@H]1COc2cccc(-c3ccc(CO)nc3)c2C1)c1ccc(OCC(F)(F)F)nc1` [Example 212, N-{(3S)-5-[6-(hydroxymethyl)pyridin-3-yl]-3,4-dihydro-2H-chromen-3-yl}-6-(2,2,2-trifluoroethoxy)nicotinamide] was run?
A: The pIC50 was 7.00.

Q: How did the pIC50 turn out when `O=C(N[C@@H]1COc2cccc(-c3cnc(CO)cn3)c2C1)c1ccc(OCCOCC(F)(F)F)nc1` [Example 213, N-{(3S)-5-[5-(hydroxymethyl)pyrazin-2-yl]-3,4-dihydro-2H-chromen-3-yl}-6-[2-(2,2,2-trifluoroethoxy)ethoxy]nicotinamide] was run?
A: Its pIC50 is 6.50.

From patent US8143408B2, “N-(8-heteroaryltetrahydronaphtalene-2yl) or N-(5-heteroarylchromane-3-yl) carboxamide derivatives for the treatment of pain” (AstraZeneca AB, priority 2007, dated 2012)
